Data reported in patent US7816358B2, “Pharmaceutical formulations comprising N,N′-disubstituted piperazine compounds” (Gruenenthal GmbH, priority 2001, dated 2010).

These compounds were tested on gabapentin binding site (assay: Gabapentin binding assay: displacement of [3H]-gabapentin from its binding site). Conditions: compound 10 μM in the test batch; [3H]-gabapentin 10 nM; homogenate 0.6 mg/ml protein; 40 minutes at room temperature.
Method: In the binding assay, the binding and affinities of the compounds according to the invention to the binding site—which is also hitherto still unknown in science—of gabapentin is investigated. The affinity of the compounds was measured via the displacement of gabapentin from its binding site.
The procedure for the measurement was as follows: Homogenate aliquots were thawed and diluted 20-fold with buffer 1, resuspended and then centrifuged at 110,000×g for 20 minutes. The pellet was resuspended with buffer 2 (10 mM HEPES, 0.05% NaN3, 1 tablet of Complete (Roche Diagnostics) per 100 ml, 0.004% Structol, pH 7.4) and adjusted to a protein concentration of 0.6 mg/ml. 225 μl of homogenate, 20 μl of [^3H]-gabapentin (76 Ci/mmol) in buffer 2, corresponding to a concentration of 10 nM in the test batch, and 5 μl of a compound according to the invention (dissolved in 25% DMSO in water) with a concentration of 10 μM in the test batch were incubated on a shaking machine for 40 minutes at room temperature in 96-well microtiter plates (polypropylene, Costar) and the incubated mixture was then filtered with suction on 96-well Unifilter plates with GF/B filters (Whatman) using a harvester (Robotic Harvester 9600, Brandel). The filter plates were preswollen for 40 minutes in buffer 3 (50 mM Tris, 0.5% PEI, pH 7.4) before the filtering step. The filter plates were washed three times with wash buffer (0.1 M NaCl with 0.05 NaN3) after the filtering step in order to remove non-bound radioligand, and then dried in a drying cabinet at 55° C. After a cooling phase of 15 minutes, 35 μl of scintillator (Ultima Gold MV, Packard) were added per well and the radioactivity on the filters was then determined in a β-counter (Trilux Microbeta, Wallac).

Compound	Gabapentin [%] inhibition [%]
CN1CCN(CC2CCCCCC2(O)Cc2ccc(Cl)cc2Cl)CC1 (stereo not drawn) [1-(2,4-Dichloro-benzyl)-2-(4-methyl-piperazin-1-ylmethyl)-cycloheptanol]	48
CN1CCN(CC2CCCCCCC2(O)Cc2ccc(Cl)cc2Cl)CC1 (stereo not drawn) [1-(2,4-Dichloro-benzyl)-2-(4-methyl-piperazin-1-ylmethyl)-cyclooctanol]	48
CN1CCN(CC2CCCCCCC2(O)Cc2c(F)cccc2Cl)CC1 (stereo not drawn) [1-(2-Chloro-6-fluoro-benzyl)-2-(4-methyl-piperazin-1-ylmethyl)-cyclooctanol]	60
CN1CCN(CC2CCCCCC2(O)Cc2c(F)cccc2Cl)CC1 (stereo not drawn) [1-(2-Chloro-6-fluoro-benzyl)-2-(4-methyl-piperzazin-1-ylmethyl)-cycloheptanol]	82
CN1CCN(CC2CCCCCC2(O)Cc2ccccc2Cl)CC1 (stereo not drawn) [1-(2-Chloro-benzyl)-2-(4-methyl-piperazin-1-ylmethyl)-cycloheptanol]	74
CN1CCN(CC2CCCCCCC2(O)Cc2ccccc2Cl)CC1 (stereo not drawn) [1-(2-Chloro-benzyl)-2-(4-methyl-piperazin-1-ylmethyl)-cyclooctanol]	61
CN1CCN(CC2CCCCCCCCCCC2(O)Cc2cccc(F)c2)CC1 (stereo not drawn) [1-(3-Fluoro-benzyl)-2-(4-methyl-piperazin-1-ylmeethyl)-cyclododecanol]	45
CN1CCN(CC2CCCCCC2(O)Cc2cccc(F)c2)CC1 (stereo not drawn) [1-(3-Fluoro-benzyl)-2-(4-methyl-piperazin-1-ylmethyl)-cycloheptanol]	44
CN1CCN(CC2CCCCCCC2(O)Cc2cccc(F)c2)CC1 (stereo not drawn) [1-(3-Fluoro-benzyl)-2-(4-methyl-piperazin-1-ylmethyl)-cyclooctanol]	42
CN1CCN(CC2CCCCCCC2(O)Cc2ccc(F)cc2)CC1 (stereo not drawn) [1-(4-Fluoro-benzyl)-2-(4-methyl-piperazin-1-ylmethyl)-cyclooctanol]	39
CN1CCN(CC2CCCCCCCCCCC2(O)Cc2ccccc2)CC1 (stereo not drawn) [1-Benzyl-2-(4-methyl-piperazin-1-ylmethyl)-cyclododecanol]	56
C=CC1(O)CCCCCCCCCCC1CN1CCN(C)CC1 (stereo not drawn) [2-(4-Methyl-piperazin-1-ylmethyl)-1-vinyl-cyclododecanol]	49
